Broadly, the Ki is a dissociation constant, usually derived from enzyme kinetics or from competition with a known ligand. In general, Kd refers to the constant that tells how readily two partners part at equilibrium. As a reminder, the EC50 is the concentration needed to bring the measured effect to its halfway point. The term IC50 denotes the midpoint of a concentration-inhibition curve.

Assay [1] addresses Beta-1 adrenergic receptor (Homo sapiens, UniProt P08588). The experiment in a line: Binding affinity to human beta1-adrenoceptor by radioligand binding assay.
For a further assay, the species on record is Homo sapiens. The assay is described as follows: Selectivity ratio of Ki for human beta1-adrenoceptor to Ki for human beta2-adrenoceptor.
For assay [2], the target named is T1, Beta-2 adrenergic receptor (Homo sapiens, UniProt P07550). The experiment in a line: Binding affinity to human beta2-adrenoceptor by radioligand binding assay.
Target sequence in this assay (P07550 whole entry): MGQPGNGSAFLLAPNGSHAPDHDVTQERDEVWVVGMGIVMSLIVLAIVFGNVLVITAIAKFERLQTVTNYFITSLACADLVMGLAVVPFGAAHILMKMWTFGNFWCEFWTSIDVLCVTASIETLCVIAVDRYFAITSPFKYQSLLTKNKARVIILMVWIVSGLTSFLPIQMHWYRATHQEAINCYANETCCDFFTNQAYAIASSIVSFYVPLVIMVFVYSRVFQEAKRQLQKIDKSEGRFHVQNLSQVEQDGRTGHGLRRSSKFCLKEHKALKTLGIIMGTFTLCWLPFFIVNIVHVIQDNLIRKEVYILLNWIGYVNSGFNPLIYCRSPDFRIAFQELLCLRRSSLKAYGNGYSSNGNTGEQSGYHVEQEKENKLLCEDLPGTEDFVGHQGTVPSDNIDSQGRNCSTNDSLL
Assay [3] has as its target Beta-2 adrenergic receptor (Cavia porcellus) (UniProt Q8K4Z4). The experiment in a line: Agonist activity at beta2-adrenoceptor in guinea-pig tracheal-strip assessed as duration of action on inhibition of electrically-stimulated muscle contraction. The following applies: Trachea. The format is functional, tissue-based.
In assay [4] the target is T1, Beta-2 adrenergic receptor. The experiment in a line: Intrinsic efficacy at beta2-adrenoceptor in human bronchial smooth-muscle cell by cAMP assay. The format is functional. (cAMP levels reflect the balance of adenylyl cyclase and phosphodiesterase activity.)
Target sequence in this assay (P07550 whole entry, looked up): as the sequence (P07550 whole entry) above
Assay [5] deals with T1, Beta-2 adrenergic receptor. The assay is described as follows: Ratio of indacaterol Ki to compound Ki for human beta2-adrenoceptor.
Target sequence in this assay (P07550 whole entry, looked up): as the sequence (P07550 whole entry) above
The target in assay [6] is T1, Beta-2 adrenergic receptor. The experiment in a line: Kinetic binding affinity to human beta2-adrenoceptor.
Target sequence in this assay (P07550 whole entry): as above
In assay [7] the target is T1, Beta-2 adrenergic receptor. The experiment in a line: Agonist activity at beta2-adrenoceptor in human bronchial smooth-muscle cell by cAMP assay. The format is functional.
Target sequence in this assay (P07550 whole entry): as above
For assay [8], the target named is T1, Beta-2 adrenergic receptor. The experiment in a line: Ratio of indacaterol EC50 to compound EC50 for beta2-adrenoceptor in human bronchial smooth-muscle cell by cAMP assay. The format is functional.
Target sequence in this assay (P07550 whole entry, looked up): as the sequence (P07550 whole entry) above
The target in assay [9] is Beta-2 adrenergic receptor (Cavia porcellus, UniProt Q8K4Z4). The experiment in a line: Agonist activity at beta2-adrenoceptor in guinea-pig tracheal-strip assessed as inhibition of electrically-stimulated muscle contraction. The format is functional, tissue-based, Trachea.
Sequence of Beta-2 adrenergic receptor (Cavia porcellus, UniProt Q8K4Z4) (Q8K4Z4 whole entry): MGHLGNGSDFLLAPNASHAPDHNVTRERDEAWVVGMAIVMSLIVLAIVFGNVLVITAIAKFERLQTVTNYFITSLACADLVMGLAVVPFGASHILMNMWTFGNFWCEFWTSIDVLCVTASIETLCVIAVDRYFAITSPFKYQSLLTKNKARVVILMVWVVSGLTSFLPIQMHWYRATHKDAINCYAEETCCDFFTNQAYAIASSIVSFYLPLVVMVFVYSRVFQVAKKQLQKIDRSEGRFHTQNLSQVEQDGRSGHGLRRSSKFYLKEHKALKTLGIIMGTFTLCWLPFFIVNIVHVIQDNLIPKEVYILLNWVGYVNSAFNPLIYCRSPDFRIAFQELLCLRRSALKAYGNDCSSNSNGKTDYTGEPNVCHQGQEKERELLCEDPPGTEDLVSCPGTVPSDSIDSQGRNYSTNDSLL
For assay [10], the target named is T2, D(2) dopamine receptor (Homo sapiens, UniProt P14416). The experiment in a line: Agonist activity at human dopamine D2 receptor expressed in CHO cells assessed as increase in GTPgamma35S binding by scintillation proximity assay. The format is functional, cell-based.
T2 sequence (P14416 whole entry): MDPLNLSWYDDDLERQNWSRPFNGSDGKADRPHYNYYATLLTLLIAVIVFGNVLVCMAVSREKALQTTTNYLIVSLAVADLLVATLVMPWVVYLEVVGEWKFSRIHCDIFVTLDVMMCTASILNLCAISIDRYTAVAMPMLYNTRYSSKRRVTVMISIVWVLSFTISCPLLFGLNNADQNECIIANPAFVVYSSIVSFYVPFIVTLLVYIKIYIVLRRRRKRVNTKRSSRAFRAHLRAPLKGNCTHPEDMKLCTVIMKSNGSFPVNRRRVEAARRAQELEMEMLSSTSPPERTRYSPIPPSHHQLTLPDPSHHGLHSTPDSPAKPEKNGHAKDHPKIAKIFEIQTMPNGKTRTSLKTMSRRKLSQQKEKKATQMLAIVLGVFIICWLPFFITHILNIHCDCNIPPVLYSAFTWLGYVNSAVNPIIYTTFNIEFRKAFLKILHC
A further assay concerns Rhesus monkey. The experiment in a line: Bronchorelaxant activity in rhesus monkey assessed as inhibition of methacholine-induced bronchoconstriction. The format is functional. The following applies: Macaca mulatta.
Assay [11] deals with T2, D(2) dopamine receptor. The assay is described as follows: Intrinsic efficacy at human dopamine D2 receptor expressed in CHO cells assessed as increase in GTPgamma35S binding by scintillation proximity assay relative to dopamine. The format is functional, cell-based. A general note: GTPγS resists hydrolysis and so accumulates on activated G proteins.

Sequence of Beta-1 adrenergic receptor (P08588 whole entry): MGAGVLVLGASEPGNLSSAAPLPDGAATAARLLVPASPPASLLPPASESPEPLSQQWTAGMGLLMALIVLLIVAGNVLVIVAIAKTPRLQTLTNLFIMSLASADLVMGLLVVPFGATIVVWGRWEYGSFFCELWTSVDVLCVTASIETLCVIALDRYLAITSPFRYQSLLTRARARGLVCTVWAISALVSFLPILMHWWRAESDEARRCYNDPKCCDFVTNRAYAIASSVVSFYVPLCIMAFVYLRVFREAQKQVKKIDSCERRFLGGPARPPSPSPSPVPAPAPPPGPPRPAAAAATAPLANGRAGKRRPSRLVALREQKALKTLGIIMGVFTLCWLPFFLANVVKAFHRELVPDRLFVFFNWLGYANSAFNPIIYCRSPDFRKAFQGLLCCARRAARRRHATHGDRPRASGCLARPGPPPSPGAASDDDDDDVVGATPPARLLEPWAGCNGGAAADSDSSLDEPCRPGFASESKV
Sequence of Beta-2 adrenergic receptor (Cavia porcellus) (Q8K4Z4 whole entry, looked up): as the sequence (Q8K4Z4 whole entry) above

For the compound `CCc1cc2c(cc1CC)CC(NCC(O)c1c(C)cc(O)c3[nH]c(=O)ccc13)C2` (racemic), the Ki was over 10000 nM in assay [1] and 515 nM in assay [2]. Also, the Ratio Ki in the assay filed under Homo sapiens was over 19.

Regarding `NC(=O)C(c1ccccc1)(c1ccccc1)[C@@H]1CCN(CCc2ccc3c(c2)CCO3)C1` [DARIFENACIN], the TIME in assay [3] turned out to be 0.5 h. In assay [4], the Efficacy came to 85%.

On to `CCc1cc2c(cc1CC)CC(NCC(O)c1ccc(O)c3[nH]c(=O)c(C)cc13)C2` (racemic), for which the Ki in assay [1] was 227 nM; in assay [2], 382 nM. The Ratio Ki in the assay listed under Homo sapiens was 0.59.

With `CCc1cc2c(cc1CC)CC(C)(NC[C@H](O)c1ccc(O)c3[nH]c(=O)ccc13)C2`, the Ratio Ki in assay [5] was over 10; in the assay listed under Homo sapiens, 3.2. This compound yielded a Kd in assay [6] of 0.26 nM. The Efficacy in [4] turned out to be 116%. The Ki in [1] stood at 1.9 nM; in assay [2], 0.6 nM. For the same compound, it took 0.28 nM to reach a half-maximal effect in assay [7] (EC50). In addition, the Ratio EC50 in assay [8] worked out at 7.3.

Take `CCc1cc2c(cc1CC)CC(NCCc1ccc(O)c3[nH]c(=O)ccc13)C2`: the TIME in assay [3] was 2.18 h. Further, in [9], the IC50 came out at 240 nM. Also, the Ki in [1] was determined as 478 nM; in [2], 261 nM. Also, the Ratio Ki in the assay listed under Homo sapiens amounted to 1.8. For the same compound, the EC50 on D(2) dopamine receptor [10] is over 10000 nM.

On to `Cc1c(C)c(C)c2c(c1C)CC(NC[C@H](O)c1ccc(O)c3[nH]c(=O)ccc13)C2`, for which the Ki in [1] turned out to be 421 nM; in assay [2] it was 175 nM. The Ratio Ki in the assay filed under Homo sapiens came to 2.4.

As for `CCc1cc2c(cc1CC)CC(NC[C@H](O)c1ccc(O)c3c1CCC(=O)N3)C2`, in assay [3], the TIME was 0.542 h. In addition, in assay [9], the concentration for half-maximal inhibition (IC50) worked out at 3.9 nM. Also, the Ki in [1] is 183 nM; in assay [2] it was 45 nM. The ED80 in the assay on Rhesus monkey came out at 0.0532 mg/kg. Besides, the Ratio Ki in the assay filed under Homo sapiens amounted to 4.1.

For `CCCCc1ccc2c(c1)CC(NC[C@H](O)c1ccc(O)c3[nH]c(=O)ccc13)C2` (some centres undefined), the Ki was found to be 259 nM in [1] and 19.4 nM in assay [2]. In addition, the Ratio Ki in the assay filed under Homo sapiens was found to be 13.4.

For the compound `O=c1[nH]c2c(O)ccc(CCNCCS(=O)(=O)CCCOCCc3ccccc3)c2s1` [SIBENADET], on D(2) dopamine receptor [11], the Efficacy is 106%. Also, the Ki in [1] worked out at 3920 nM; in [2], 4 nM. The Ratio Ki in the assay listed under Homo sapiens is 981. Also, at D(2) dopamine receptor [10], the EC50 came to 4.5 nM.

Values taken from ChEMBL document CHEMBL2086302, “An investigation into the structure-activity relationships associated with the systematic modification of the β(2)-adrenoceptor agonist indacaterol” (Bioorg Med Chem Lett, 2012).
